The values that follow come from PubChem BioAssay (NCI).

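Cells were grown in 96-well plates and exposed to each compound for 48 hours at five concentrations; endpoints were interpolated linearly between bracketing concentrations, or set to the highest concentration if not reached. TGI is the concentration that stops growth completely.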

Common to all, as to test: NCI anticancer screen, dose series, 48 h
Assay [1] concerns CAKI-1 renal.
Assay [2] has as its system MDA-MB-231 breast.
Assay [3] concerns HL-60(TB) leukemia.
The test system of assay [4] is HCT-116 colon.
The test system of assay [5] is LOX IMVI melanoma.
The test system of assay [6] is PC-3 prostate.
The test system of assay [7] is K-562 leukemia.
Assay [8] concerns NCI-H226 lung.
In assay [9] the test system is SK-MEL-28 melanoma.
For assay [10], the system named is OVCAR-5 ovarian.
In assay [11] the test system is A498 renal.
Assay [12] has as its system MOLT-4 leukemia.
The test system of assay [13] is RPMI-8226 leukemia.
For assay [14], the system named is COLO 205 colon.
In assay [15] the test system is EKVX NSCLC.
Assay [16] concerns UACC-257 melanoma.
Assay [17] concerns SR leukemia.
Assay [18] has as its system HOP-62 NSCLC.
Assay [19] deals with SNB-19 CNS.
Assay [20] has as its system IGROV1 ovarian.

On to `O=P1(N(CCCl)CCCl)Oc2c(Cl)cc(Cl)c(Cl)c2Cc2c(Cl)c(Cl)cc(Cl)c2O1`, for which the TGI in assay [1], in [2], in [3], in assay [4], in assay [5] and in [6] was more than 100 µM throughout. Further, the TGI in assay [7], in assay [8], in assay [9], in assay [10], in assay [11] and in assay [12] was more than 100 µM each time. Moreover, the TGI in assay [13] is more than 100 µM; in assay [14] it was 45.7 µM; in assay [15], more than 100 µM; in assay [16], more than 100 µM; in [17], more than 100 µM; in assay [18], more than 100 µM.

Turning to `CCOP(=O)(OCC)c1cc2cc(O)ccc2oc1=O`, the TGI in assay [19], in [1], in assay [2], in [3], in assay [4] and in assay [5] was more than 100 µM each time. Moreover, the TGI in assay [6], in assay [20], in assay [7], in [8], in assay [9] and in assay [10] was more than 100 µM throughout. Also, the TGI in assay [11], in [13], in assay [14], in [15], in assay [16] and in assay [17] was more than 100 µM throughout. The compound also returned a TGI in [18] of more than 100 µM.

In the case of `Cc1c2ccccc2c(CSC(=N)N)c2ccccc12`, the TGI in assay [19] came to 1.39 µM; in assay [2] it was 1.03 µM; in assay [3], 0.343 µM; in assay [4] it was 1.35 µM; in assay [5] it was 1.06 µM; in assay [6], 0.829 µM. Also, the TGI in assay [20] was 2.36 µM; in assay [7] it was 1.4 µM; in [8] it was 0.679 µM; in assay [9], 0.809 µM; in assay [10], 1.13 µM; in assay [11] it was 0.4 µM. In addition, the TGI in [12] turned out to be 0.127 µM; in assay [13] it was 0.558 µM; in [14], 0.37 µM; in [15], 1.33 µM; in assay [16], 0.406 µM; in assay [17] it was 0.0673 µM. The TGI in [18] came out at 1.99 µM.

As for `OC1C2CCC3C2CC(C(O)(c2ccccc2)c2ccccc2)C13` (configuration not stated), the TGI in assay [19], in assay [1], in [2], in [4], in assay [5] and in assay [6] was more than 100 µM each time. In addition, the TGI in [20] was more than 100 µM; in assay [7], more than 100 µM; in assay [8], 92.6 µM; in assay [9] it was more than 100 µM; in assay [10], more than 100 µM; in assay [11] it was more than 100 µM. The TGI in assay [12] is 74 µM; in assay [14] it was 37.2 µM; in [15] it was more than 100 µM; in assay [16], 95.6 µM; in [17], 69.7 µM; in assay [18], more than 100 µM.

In the case of `COc1ccc(OC)c2sc(N3C(=O)/C(=C/c4ccc(SC)cc4)N=C3c3ccccc3)nc12`, the TGI was 68.5 µM in assay [19]; more than 100 µM in assay [1]; more than 100 µM in [2]; 64.9 µM in assay [3]; 41.3 µM in [4]; 64.4 µM in assay [5]. Moreover, the TGI is 50.6 µM in [6]; more than 100 µM in assay [20]; more than 100 µM in [7]; more than 100 µM in assay [9]; more than 100 µM in assay [10]; more than 100 µM in assay [11]. Also, the TGI in assay [12] is 80.5 µM; in assay [13], 63.3 µM; in assay [14], more than 100 µM; in [15] it was more than 100 µM; in assay [16], more than 100 µM; in assay [17], 60.6 µM. For the same compound, the TGI in assay [18] came out at 40 µM.

Regarding `C=C1CC(COc2ccc3c(C)c(Cl)c(=O)oc3c2)(c2ccccc2)OC1=O` (configuration not stated), the TGI in assay [19] came out at 29.7 µM; in [1] it was 3.12 µM; in [2] it was 14.4 µM; in [3] it was 1.42 µM; in assay [4], 2.42 µM; in assay [5], 2.82 µM. Further, the TGI was determined as 5.49 µM in assay [6]; 3.89 µM in assay [20]; 8.01 µM in assay [8]; 6.43 µM in assay [9]; 25.9 µM in assay [10]; 25.7 µM in [11]. Moreover, the TGI in [13] is 1.42 µM; in assay [14], 1.83 µM; in assay [15], 31.2 µM; in assay [16], 4.01 µM; in [17] it was more than 21.5 µM; in [18], 20.3 µM.

In the case of `CCOc1cc(/C=N\O)cc(/C=N/O)c1O`, the TGI in [19] was more than 100 µM; in [1], 61.1 µM; in [2], more than 100 µM; in assay [3], more than 100 µM; in assay [4], more than 100 µM; in assay [5], 71.9 µM. Also, the TGI is more than 100 µM in assay [6]; more than 100 µM in assay [7]; more than 100 µM in assay [8]; more than 100 µM in assay [9]; more than 100 µM in assay [10]; 51.1 µM in assay [11]. Also, the TGI in [12] was 99 µM; in [13], more than 100 µM; in assay [14], 50.1 µM; in [15], more than 100 µM; in [16], more than 100 µM; in [17], more than 100 µM. The compound also displayed a TGI in assay [18] of more than 100 µM.

As for `CCOC(=O)CC[C@H](NC(=O)c1ccc(CNc2nc3cc(C(F)(F)F)ccc3nc2C(=O)OCC)cc1)C(=O)OCC`, the TGI in assay [19] was 25.4 µM; in assay [1], 29.5 µM; in assay [2], more than 48.4 µM; in assay [3] it was more than 100 µM; in [4], more than 100 µM; in [5], more than 100 µM. The TGI in assay [6] is more than 89.3 µM; in assay [20] it was more than 53.4 µM; in [7], more than 100 µM; in [9], more than 100 µM; in assay [10], more than 86 µM; in assay [11], more than 100 µM. Also, the TGI was more than 100 µM in assay [12]; more than 100 µM in assay [13]; more than 100 µM in [14]; 42.7 µM in assay [15]; more than 100 µM in [16]; more than 100 µM in assay [17]. The TGI in [18] was more than 46 µM.

As to `CC1OC1P(=O)(O)O` (configuration not stated), the TGI in [19], in [1], in assay [2], in assay [4], in assay [5] and in assay [6] was more than 100 µM in each case. Besides, the TGI in [20], in assay [7], in assay [9], in assay [10], in assay [11] and in [12] was more than 100 µM in each case. Also, the TGI in assay [13], in [14], in [15], in [16], in assay [17] and in [18] was more than 100 µM each time.

As to `CC1(C)[C@H]2CC[C@](C)(C2)[C@]1(S)Cc1ccccn1`, the TGI in assay [19] was more than 100 µM; in assay [1] it was more than 100 µM; in [2], more than 100 µM; in assay [3], 50.9 µM; in assay [4] it was more than 100 µM; in [5], 36.8 µM. For the same compound, the TGI in [6] was 67.6 µM; in [20] it was more than 100 µM; in [7], more than 100 µM; in assay [9], more than 100 µM; in [10], more than 100 µM; in assay [11] it was more than 100 µM. Besides, the TGI was 54 µM in [12]; 93.5 µM in assay [13]; more than 100 µM in assay [14]; more than 100 µM in assay [15]; 72.7 µM in assay [16]; 43.2 µM in assay [17]. Moreover, in assay [18], the TGI was more than 100 µM.

`NNC(=O)CC(=O)Nc1ccccc1Cl`: the TGI in [19], in assay [1], in assay [2], in assay [3], in assay [4] and in assay [5] was more than 100 µM each time. Also, the TGI in assay [6], in assay [20], in assay [7], in assay [9], in [10] and in [11] was more than 100 µM throughout. Moreover, the TGI in assay [12], in assay [13], in assay [14], in assay [15], in assay [16] and in assay [17] was more than 100 µM throughout. The same compound had a TGI in assay [18] of more than 100 µM.

Take `O=C1OCCC12CN(Cc1ccccc1)N=N2` (configuration not stated): the TGI in assay [19], in assay [1], in assay [2], in assay [4], in assay [6] and in assay [7] was more than 100 µM in each case. In addition, the TGI in [9], in [10], in assay [11], in assay [12], in assay [13] and in [14] was more than 100 µM throughout. The TGI was 74.6 µM in [17] and more than 100 µM in assay [18].

Regarding `c1ccc(C2(c3ccccc3)S/C(=C3/SC(c4ccccc4)(c4ccccc4)c4ccccc43)c3ccccc32)cc1`, the TGI in [19], in assay [1], in assay [2], in assay [3], in assay [4] and in assay [5] was more than 100 µM throughout. For the same compound, the TGI in [6], in assay [20], in assay [7], in assay [8], in assay [9] and in assay [10] was more than 100 µM throughout. The TGI in [11], in assay [12], in [14], in assay [15], in [16] and in assay [17] was more than 100 µM throughout. This compound showed a TGI in assay [18] of more than 100 µM.

In the case of `CC1(C)CC(=O)c2c([nH]c(=S)c(C#N)c2-c2ccc(Br)cc2)C1`, the TGI in assay [19], in [1], in assay [2], in assay [3], in [4] and in [5] was more than 100 µM throughout. Further, the TGI in assay [6], in [20], in assay [7], in assay [8], in [9] and in [10] was more than 100 µM in each case. In addition, the TGI in assay [11] is more than 100 µM; in [15], more than 100 µM; in assay [16], more than 100 µM; in assay [17], 51.7 µM; in assay [18], more than 100 µM.

On to `CC(SC(=S)N(C)C)C(=O)Nc1nnc(-c2ccc(Cl)cc2)o1` (configuration not stated), for which the TGI is more than 100 µM in [19]; more than 100 µM in [2]; more than 100 µM in assay [4]; 33.8 µM in assay [5]; more than 100 µM in assay [6]; more than 100 µM in [20]. Moreover, the TGI in [7] is more than 100 µM; in assay [8] it was more than 100 µM; in assay [9], more than 100 µM; in [10], more than 100 µM; in assay [11] it was more than 100 µM; in assay [12], 8.28 µM. Also, the TGI in assay [13] was 66.6 µM; in assay [14] it was more than 100 µM; in [16], more than 100 µM; in [17] it was 19.9 µM; in assay [18], more than 100 µM.
